In patent US20030134401A1, “Process for the stereoselective preparation of functionalized vicinal diols” (priority 2001, published 2003):

What was measured:
whole cell R. glutinis = test: Hydrolysis of epoxy nitriles by whole resting cells of Rhodotorula glutinis; format: cell-based, Rhodotorula glutinis CBS 8761; conditions: 50 mM potassium phosphate buffer pH 7.5, 35-37° C., 10 mM epoxide
Description: The racemic resolution of the epoxy nitriles was performed with 24 g/L (dry weight) of whole resting cells of Rhodotorula glutinis CBS 8761 in an aqueous solution of 50 mM potassium phosphate buffer at pH 7.5, 35-37° C. The starting epoxide concentration used was 10 mM. After 150 minutes the resolution was stopped by centrifugation and separation of the supernatant liquid and enantiopure epoxide (>99% ee, GC-analysis) could be obtained with 50% conversion (100% of the theoretical yield).
Determination of reaction and extraction progress as well as enantiomeric excess were performed by gas chromatography (GC) using fused silica cyclodextrin capillary column (FS-CYCLODEX alpha-I/P 50 m length, 0.32 mm ID, Chromatography Service GmbH) on an Hewlett-Packard 6890 gas chromatograph equipped with FID detector and using H2 as carrier gas at 120° C. and 0.6 bar pressure.
Examples 12 and 13 were carried out analogously to examples 8 and 10 using 2-cyano-3,3-dimethyl-oxirane as substrate.

Eph1 = test: Hydrolysis of epoxy nitriles by cell free extract of recombinant E. coli BL21(DE3)[pEph1]; format: biochemical, Rhodotorula glutinis; conditions: 50 mM potassium phosphate buffer pH 7.5, 35-37° C., 10 mM epoxide
Description: Cell extracts (from cell suspensions prepared according to examples 9, 10 and 11) were prepared by sonication (5 minutes, duty cycle 30%, output control 3) using a Branson sonifier 250. To separate the cell extracts in a soluble and an insoluble fraction the disrupted cells in KPi-buffer were centrifuged for 10 minutes at 4° C. and 20,000×g. The supernatant, containing the soluble proteins, was called the S-fraction. The pellet, containing the insoluble proteins and cell debris, was resuspended in an equal volume of KPi-buffer and referred to as the P-fraction.
The racemic resolution of the epoxy nitrile was performed with the cell free extracts of E. coli BL21(DE3)[pEph1] containing 48 mg protein/L in an aqueous solution of 50 mM potassium phosphate buffer at pH 7.5, 35-37° C. The starting epoxide concentration used was 10 mM. After 150 minutes the resolution was stopped by short and rapid heating to 80° C. and enantiopure epoxide (>99% ee, GC-analysis) could be obtained with 50% conversion (100% of the theoretical yield). […]

Compound	activity [U/g (dry weight)] whole cell R. glutinis (whole cell R. glutinis)	activity [U/g (protein)] cell free extract E. coli (Eph1)
CC1(C)OC1C#N (stereo not shown) [2-cyano-3,3-dimethyl-oxirane]	3 (example 18) U/g (dry weight)	300 (example 19) U/g (protein)
N#CC1OC12CCCCC2 (racemic) [1-oxa-spiro[2.5]octane-2-carbonitrile]	6 (example 14) U/g (dry weight)	3000 (example 16) U/g (protein)
